Reference: ChEMBL document CHEMBL1687812, “Interplay between drug efflux and antioxidants in Escherichia coli resistance to antibiotics” (2010)
Values after ≈ are worked out from the molar mass of the structure shown. Active and inactive are the calls of the source. The calls are words filed in the database; no cut-off is given here.

Assays:
[1] = test system: Escherichia coli; test: Antibacterial activity against kanamycin-resistant acrAB, acrEF deficient Escherichia coli W4680AE absence of glutathione; type: functional
[2] = test system: Escherichia coli; test: Antibacterial activity against wild type Escherichia coli BW25113; type: functional
[3] = test system: Escherichia coli; test: Antibacterial activity against wild type Escherichia coli BW25113 presence of 15 mM of glutathione; type: functional
[4] = test system: Escherichia coli; test: Antibacterial activity against tolC, speE deficient Escherichia coli GD106; type: functional
[5] = test system: Escherichia coli; test: Antibacterial activity against kanamycin-resistant acrAB, acrEF deficient Escherichia coli W4680AE presence of 15 mM of glutathione; type: functional
[6] = test system: Escherichia coli; test: Antibacterial activity against tolC deficient Escherichia coli GD100; type: functional
[7] = test system: Escherichia coli; test: Antibacterial activity against tolC deficient Escherichia coli GD100 presence of 5 mM of glutathione; type: functional
[8] = test system: Escherichia coli; test: Antibacterial activity against kanamycin-resistant acrAB, acrEF deficient Escherichia coli W4680AE presence of 5 mM of glutathione; type: functional
[9] = test system: Escherichia coli; test: Antibacterial activity against speE deficient Escherichia coli JW0117-1; type: functional
[10] = test system: Escherichia coli; test: Antibacterial activity against tolC deficient Escherichia coli GD100 absence of glutathione; type: functional
[11] = test system: Escherichia coli; test: Antibacterial activity against gspS deficient Escherichia coli JW2956-1; type: functional
[12] = test system: Escherichia coli; test: Antibacterial activity against wild type Escherichia coli BW25113 presence of 10 mM of glutathione; type: functional
[13] = test system: Escherichia coli; test: Antibacterial activity against ygiBC, yjfMC, gspS deficient Escherichia coli GD108; type: functional
[14] = test system: Escherichia coli; test: Antibacterial activity against tolC, gshB deficient Escherichia coli GD107; type: functional
[15] = test system: Escherichia coli; test: Antibacterial activity against wild type Escherichia coli BW25113 absence of glutathione; type: functional
[16] = test system: Escherichia coli; test: Antibacterial activity against tolC deficient Escherichia coli GD100 presence of 10 mM of glutathione; type: functional
[17] = test system: Escherichia coli; test: Antibacterial activity against kanamycin-resistant acrAB, acrEF deficient Escherichia coli W4680AE presence of 10 mM of glutathione; type: functional
[18] = test system: Escherichia coli; test: Antibacterial activity against wild type Escherichia coli BW25113 presence of 5 mM of glutathione; type: functional
[19] = test system: Escherichia coli; test: Antibacterial activity against tolC deficient Escherichia coli GD100 presence of 15 mM of glutathione; type: functional, organism-based
[20] = test system: Escherichia coli; test: Antibacterial activity against gshB deficient Escherichia coli JW2914-1; type: functional

CC[C@H]1OC(=O)[C@H](C)[C@@H](O[C@H]2C[C@@](C)(OC)[C@@H](O)[C@H](C)O2)[C@H](C)[C@@H](O[C@@H]2O[C@H](C)C[C@H](N(C)C)[C@H]2O)[C@](C)(O)C[C@@H](C)C(=O)[C@H](C)[C@@H](O)[C@]1(C)O [ERYTHROMYCIN]
MIC [1]: 4 µg/mL (≈ 5.45 µM) | MIC [2]: 32 µg/mL (≈ 43.6 µM) | MIC [3]: 512 µg/mL | MIC [4]: 1 µg/mL (≈ 1.36 µM) | MIC [5]: 32 µg/mL | MIC [6]: 1 µg/mL (≈ 1.36 µM) | MIC [7]: 4 µg/mL | MIC [8]: 4 µg/mL | MIC [9]: 32 µg/mL (≈ 43.6 µM) | MIC [10]: 4 µg/mL (≈ 5.45 µM) | MIC [11]: 64 µg/mL (≈ 87.2 µM) | MIC [12]: 512 µg/mL | MIC [13]: 64 µg/mL (≈ 87.2 µM) | MIC [14]: 1 µg/mL (≈ 1.36 µM) | MIC [15]: 128 µg/mL (≈ 174 µM) | MIC [16]: 4 µg/mL | MIC [17]: 8 µg/mL | MIC [18]: 512 µg/mL | MIC [19]: Active | MIC [20]: 64 µg/mL (≈ 87.2 µM)

CN[C@@H]1[C@H](O)[C@H](NC)[C@H]2O[C@@]3(O)C(=O)C[C@@H](C)O[C@H]3O[C@@H]2[C@H]1O [SPECTINOMYCIN]
MIC [2]: 25 µg/mL (≈ 75.2 µM) | MIC [4]: 25 µg/mL (≈ 75.2 µM) | MIC [6]: 12.5 µg/mL (≈ 37.6 µM) | MIC [9]: 25 µg/mL (≈ 75.2 µM) | MIC [11]: 25 µg/mL (≈ 75.2 µM) | MIC [13]: 25 µg/mL (≈ 75.2 µM) | MIC [14]: 12.5 µg/mL (≈ 37.6 µM) | MIC [20]: 25 µg/mL (≈ 75.2 µM)

CO[C@@H]1[C@@H](OC(N)=O)[C@@H](O)[C@H](Oc2ccc3c(O)c(NC(=O)c4ccc(O)c(CC=C(C)C)c4)c(=O)oc3c2C)OC1(C)C [NOVOBIOCIN]
MIC [2]: 32 µg/mL (≈ 52.2 µM) | MIC [4]: 1 µg/mL (≈ 1.63 µM) | MIC [6]: 1 µg/mL (≈ 1.63 µM) | MIC [9]: 64 µg/mL (≈ 104 µM) | MIC [11]: 64 µg/mL (≈ 104 µM) | MIC [13]: 32 µg/mL (≈ 52.2 µM) | MIC [14]: 1 µg/mL (≈ 1.63 µM) | MIC [20]: 256 µg/mL (≈ 418 µM)

NC[C@H]1O[C@H](O[C@H]2[C@H](O)[C@@H](O[C@H]3O[C@H](CO)[C@@H](O)[C@H](N)[C@H]3O)[C@H](N)C[C@@H]2N)[C@H](O)[C@@H](O)[C@@H]1O [KANAMYCIN]
MIC [2]: 0.78 µg/mL (≈ 1.61 µM) | MIC [3]: 50 µg/mL | MIC [4]: 6.25 µg/mL (≈ 12.9 µM) | MIC [6]: 0.78 µg/mL (≈ 1.61 µM) | MIC [7]: 25 µg/mL | MIC [9]: 12.5 µg/mL (≈ 25.8 µM) | MIC [10]: 1.56 µg/mL (≈ 3.22 µM) | MIC [11]: 1.56 µg/mL (≈ 3.22 µM) | MIC [12]: 50 µg/mL | MIC [13]: 1.56 µg/mL (≈ 3.22 µM) | MIC [14]: 3.12 µg/mL (≈ 6.45 µM) | MIC [15]: 1.56 µg/mL (≈ 3.22 µM) | MIC [16]: 50 µg/mL | MIC [18]: 25 µg/mL | MIC [19]: Active | MIC [20]: 6.25 µg/mL (≈ 12.9 µM)

CC1(C)S[C@@H]2[C@H](NC(=O)[C@H](N)c3ccccc3)C(=O)N2[C@H]1C(=O)O [AMPICILLIN]
MIC [2]: 5 µg/mL (≈ 14.3 µM) | MIC [4]: 5 µg/mL (≈ 14.3 µM) | MIC [6]: 5 µg/mL (≈ 14.3 µM) | MIC [9]: 5 µg/mL (≈ 14.3 µM) | MIC [11]: 10 µg/mL (≈ 28.6 µM) | MIC [13]: 5 µg/mL (≈ 14.3 µM) | MIC [14]: 5 µg/mL (≈ 14.3 µM) | MIC [20]: 10 µg/mL (≈ 28.6 µM)

CCn1cc(C(=O)O)c(=O)c2cc(F)c(N3CCNCC3)cc21 [NORFLOXACIN]
MIC [1]: 0.005 µg/mL (≈ 0.0157 µM) | MIC [2]: 0.04 µg/mL (≈ 0.125 µM) | MIC [3]: 1.28 µg/mL | MIC [4]: 0.005 µg/mL (≈ 0.0157 µM) | MIC [5]: 0.16 µg/mL | MIC [6]: 0.01 µg/mL (≈ 0.0313 µM) | MIC [7]: 0.02 µg/mL | MIC [8]: 0.01 µg/mL | MIC [9]: 0.02 µg/mL (≈ 0.0626 µM) | MIC [10]: 0.01 µg/mL (≈ 0.0313 µM) | MIC [11]: 0.02 µg/mL (≈ 0.0626 µM) | MIC [12]: 0.64 µg/mL | MIC [13]: 0.01 µg/mL (≈ 0.0313 µM) | MIC [14]: 0.0025 µg/mL (≈ 0.00783 µM) | MIC [15]: 0.04 µg/mL (≈ 0.125 µM) | MIC [16]: 0.08 µg/mL | MIC [17]: 0.02 µg/mL | MIC [18]: 0.16 µg/mL | MIC [19]: Active | MIC [20]: 0.04 µg/mL (≈ 0.125 µM)

NCC[C@H](O)C(=O)N[C@@H]1C[C@H](N)[C@@H](O[C@H]2O[C@H](CN)[C@@H](O)[C@H](O)[C@H]2O)[C@H](O)[C@H]1O[C@H]1O[C@H](CO)[C@@H](O)[C@H](N)[C@H]1O [AMIKACIN]
MIC [2]: 1 µg/mL (≈ 1.71 µM) | MIC [4]: 8 µg/mL (≈ 13.7 µM) | MIC [6]: 1 µg/mL (≈ 1.71 µM) | MIC [9]: 16 µg/mL (≈ 27.3 µM) | MIC [11]: 2 µg/mL (≈ 3.42 µM) | MIC [13]: 1 µg/mL (≈ 1.71 µM) | MIC [14]: 2 µg/mL (≈ 3.42 µM) | MIC [20]: 4 µg/mL (≈ 6.83 µM)
